In ChEMBL document CHEMBL3785017, “Induction of apoptosis and differentiation by atractylenolide-1 isolated from Atractylodes macrocephala in human leukemia cells” (Bioorg Med Chem Lett, 2016):
Values after ≈ are worked out from the molar mass of the structure shown. Active and inactive are the calls of the source. The rule behind the calls is not given here.

Legend:
K562 [1] = assay: Induction of phagocytosis in human K562 cells at 10 uM incubated for 4 to 6 days followed by fluorescent latex beads addition measured after 2 hrs by flow cytometry; assay type: functional, cell-based
K562 [2] = assay: Induction of cell differentiation in human K562 cells assessed as upregulation of CD14 at 10 uM after 72 hrs by flow cytometry; assay type: functional, cell-based
U-937 [3] = assay: Induction of phagocytosis in human U937 cells at 10 uM measured using fluorescent latex beads after 2 hrs by flow cytometry; assay type: functional, cell-based
[4] = Induction of cell differentiation in human U937 cells assessed as upregulation of CD14 at 10 uM after 72 hrs by flow cytometry; assay type: functional, cell-based; details: U-937
K562 [5] = assay: Cell cycle arrest in human K562 cells assessed as accumulation at sub G1 phase at 50 to 100 ug/ml after 48 hrs by propidium iodide staining based flow cytometry; assay type: functional
U-937 [6] = assay: Induction of apoptosis in human U937 cells assessed as procaspase 3 degradation at 6.25 to 50 ug/ml after 24 hrs by Western blot analysis; assay type: functional, cell-based
[7] = Induction of cell differentiation in human U937 cells assessed as upregulation of CD68 at 6.25 ug/ml after 72 hrs by flow cytometry (reference value: 5.9%); assay type: functional, cell-based; details: U-937
[8] = Induction of cell differentiation in human U937 cells assessed as upregulation of CD14 at 6.25 ug/ml after 72 hrs by flow cytometry (reference value: 4.3%); assay type: functional, cell-based; details: U-937
U-937 [9] = assay: Induction of cell death in human U937 at 12.5 to 25 ug/ml cells after 24 hrs; assay type: functional, cell-based
[10] = Cell cycle arrest in human Jurkat T cells assessed as accumulation at sub G1 phase at 50 ug/ml after 24 hrs by propidium iodide staining based flow cytometry (reference value: 0.9%); assay type: functional
Jurkat [11] = assay: Induction of apoptosis in human Jurkat T cells assessed as procaspase 3 degradation at 6.25 to 50 ug/ml after 24 hrs by Western blot analysis; assay type: functional, cell-based
U-937 [12] = assay: Induction of apoptosis in human U937 cells assessed as PARP degradation at 50 ug/ml after 24 hrs by Western blot analysis; assay type: functional, cell-based
[13] = Cytotoxicity against human U937 cells assessed as growth inhibition after 48 hrs by MTT assay; assay type: functional, cell-based; details: U-937, 48 h
Jurkat [14] = assay: Induction of cell death in human Jurkat T cells; assay type: functional, cell-based
[15] = Cell cycle arrest in human Jurkat T cells assessed as accumulation at sub G1 phase at 12.5 ug/ml after 24 hrs by propidium iodide staining based flow cytometry (reference value: 0.9%); assay type: functional
K562 [16] = assay: Induction of cell differentiation in human K562 cells assessed as upregulation of CD14 at 12.5 ug/ml after 72 hrs by flow cytometry (reference value: 6.4%); assay type: functional
[17] = Cell cycle arrest in human Jurkat T cells assessed as accumulation at sub G1 phase at 25 ug/ml after 24 hrs by propidium iodide staining based flow cytometry (reference value: 0.9%); assay type: functional
K562 [18] = assay: Induction of cell death in human K562 cells at 12.5 to 50 ug/ml after 48 hrs; assay type: functional, cell-based
[19] = Cytotoxicity against human Jurkat T cells assessed as growth inhibition after 48 hrs by MTT assay; assay type: functional, cell-based
K562 [20] = assay: Cytotoxicity against human K562 CML cells assessed as growth inhibition treated with high doses of compound after 48 to 72 hrs by MTT assay; assay type: functional, cell-based
[21] = Cell cycle arrest in human U937 cells assessed as accumulation at sub G1 phase at 50 to 100 ug/ml after 24 hrs by propidium iodide staining based flow cytometry; assay type: functional; details: U-937
U-937 [22] = assay: Induction of apoptosis in human U937 cells assessed as fragmented chromosomal DNA at 6.25 to 50 ug/ml after 12 to 48 hrs by agarose gel electrophoresis; assay type: functional, cell-based
U-937 [23] = assay: Induction of phagocytosis in human U937 cells at 6.25 to 12.5 ug/ml measured using fluorescent latex beads after 2 hrs by flow cytometry relative to control; assay type: functional
[24] = Cytotoxicity against human U937 cells assessed as growth inhibition after 24 hrs by MTT assay; assay type: functional, cell-based; details: U-937, 24 h
[25] = Induction of cell differentiation in human U937 cells assessed as upregulation of CD68 at 12.5 ug/ml after 72 hrs by flow cytometry (reference value: 5.9%); assay type: functional, cell-based; details: U-937
U-937 [26] = assay: Induction of apoptosis in human U937 cells assessed as procaspase 9 degradation at 6.25 to 50 ug/ml after 24 hrs by Western blot analysis; assay type: functional, cell-based
Jurkat [27] = assay: Induction of apoptosis in human Jurkat T cells assessed as procaspase 9 degradation at 6.25 to 50 ug/ml after 24 hrs by Western blot analysis; assay type: functional, cell-based
Jurkat [28] = assay: Induction of apoptosis in human Jurkat T cells assessed as PARP degradation at 50 ug/ml after 24 hrs by Western blot analysis; assay type: functional, cell-based
[29] = Cytotoxicity against human Jurkat T cells assessed as growth inhibition after 24 hrs by MTT assay; assay type: functional, cell-based
Jurkat [30] = assay: Induction of apoptosis in human Jurkat T cells assessed as fragmented chromosomal DNA at 6.25 to 50 ug/ml after 12 to 48 hrs by agarose gel electrophoresis; assay type: functional, cell-based
[31] = Cytotoxicity against human Jurkat T cells assessed as growth inhibition after 12 hrs by MTT assay; assay type: functional, cell-based
K562 [32] = assay: Induction of cell differentiation in human K562 cells assessed as upregulation of CD14 at 50 ug/ml after 72 hrs by flow cytometry (reference value: 6.4%); assay type: functional
U-937 [33] = assay: Induction of phagocytosis in human U937 cells at 0.1 uM measured using fluorescent latex beads after 2 hrs by flow cytometry; assay type: functional, cell-based
K562 [34] = assay: Induction of phagocytosis in human K562 cells at 0.1 uM preincubated for 4 to 6 days followed by addition of fluorescent latex beads measured after 2 hrs by flow cytometry; assay type: functional, cell-based
[35] = Induction of cell differentiation in human U937 cells assessed as upregulation of CD68 at 0.1 uM after 72 hrs by flow cytometry (reference value: 5.9%); assay type: functional, cell-based; details: U-937
K562 [36] = assay: Induction of cell differentiation in human K562 cells assessed as upregulation of CD14 at 0.1 uM after 72 hrs by flow cytometry (reference value: 6.4%); assay type: functional
[37] = Induction of cell differentiation in human U937 cells assessed as upregulation of CD14 at 0.1 uM after 72 hrs by flow cytometry (reference value: 4.3%); assay type: functional, cell-based; details: U-937

CC[C@@]1(O)C(=O)OCc2c1cc1n(c2=O)Cc2cc3ccccc3nc2-1
Activity (K562 [1]): inactive
Activity (K562 [2]): inactive
Activity (U-937 [3]): inactive
Activity [4]: inactive

C=C1CCC[C@]2(C)C=C3OC(=O)C(C)=C3C[C@@H]12 [ATRACTYLENOLIDE I]
Activity (K562 [5]): >50%
Activity (U-937 [6]): Active
Activity [7]: 53.3%
Activity [8]: 25.6%
Activity (U-937 [9]): Active
Activity [10]: 32.3%
Activity (Jurkat [11]): Active
Activity (U-937 [12]): Active
IC50 [13]: 4.23 µg/mL (≈ 18.4 µM)
Activity (Jurkat [14]): Active
Activity [15]: 7.5%
Activity (K562 [16]): 13.4%
Activity [17]: 20.3%
Activity (K562 [18]): Active
IC50 [19]: 24.4 µg/mL (≈ 106 µM)
growth inhibition (GI) (K562 [20]): Active
Activity [21]: > 50%
Activity (U-937 [22]): Active
Activity (U-937 [23]): 50%
IC50 [24]: 14.9 µg/mL (≈ 64.7 µM)
Activity [25]: 84.3%
Activity (U-937 [26]): Active
Activity (Jurkat [27]): Active
Activity (Jurkat [28]): Active
IC50 [29]: 37.6 µg/mL (≈ 163 µM)
Activity (Jurkat [30]): Active
IC50 [31]: 44.7 µg/mL (≈ 194 µM)
Activity (K562 [32]): 18.1%

CCCCCCCCCCCCCC(=O)O[C@@H]1[C@@H](C)[C@@]2(O)[C@@H](C=C(CO)C[C@]3(O)C(=O)C(C)=C[C@@H]23)[C@@H]2C(C)(C)[C@]12OC(C)=O [PHORBOL MYRISTATE ACETATE]
Activity (U-937 [33]): Active
Activity (K562 [34]): Active
Activity [35]: 39.2%
Activity (K562 [36]): 38.1%
Activity [37]: 25%
